Patent US8354102B2, “Antibodies directed to mGluR7” (Hoffmann-La Roche Inc., priority 2007, dated 2013)
In the oligonucleotide strings, read from the 5' end, every base follows the letter of its sugar. An asterisk marks phosphorothioate; unmarked linkages are phosphodiester. Other units and linkages are bracketed, terminal groups are in braces. A string of capitals states the bases alone. [C6SSC6] = C6-disulfide-C6 linker; {Cy5} = Cy5 fluorescent dye label; d = 2'-deoxy (DNA); m = 2'-O-methyl; r = 2'-OH (RNA)

Experiments:
[1] = test system: p44/42 MAPK (Thr202/Tyr204) in CHO cells expressing mGlu7 receptors; assay: p44/42 MAPK activities (PathScan Sandwich ELISA) in CHO cells expressing mGlu7 receptors; type: cell-based, rat; conditions: 5 minutes stimulation; FIG. 8C
Protocol: Cells stably expressing the rat mGluR7 receptor are seeded in growth medium in 6 well plates. The next day, medium is replaced with 2 ml starvation medium (Opti-MEM with 0.1% fatty acid free BSA). The following day cells are stimulated with compound in 150 μl starvation medium for the indicated times at 37° C., otherwise cells are stimulated for 5 minutes. Cells are washed with ice cold PBS and lyzed in 150 ul buffer containing 1 mM β-glycerophosphate 1 mM EDTA, 1 mM EGTA, 1 μg/ml leupeptin, 150 mM sodium chloride, 2.5 mM sodium phosphate, 20 mM Tris-Cl, 1 mM PMSF and 1% Triton X-100, scraped off and sonicated on ice. After centrifugation the supernatant is analyzed for p44/42 MAPK activities using the PathScan™ Sandwich ELISA kit according to instructions of the manufacturer. Absorbance ([…]) is read using the EnVision reader (Perkin Elmer).

rat mGlu7a receptor = biological target: T1, rat mGlu7a receptor (Rattus norvegicus, UniProt P35400); assay: CRE-luciferase reporter gene assay in rat mGlu7a transfected CHO clones; type: cell-based; conditions: 1 μM forskolin and 0.5 mM L-AP4, 4 h; responses across clones ranged from no depression to this maximum
T1 construct: expressed in transfected cells
T1 sequence (P35400 35-915): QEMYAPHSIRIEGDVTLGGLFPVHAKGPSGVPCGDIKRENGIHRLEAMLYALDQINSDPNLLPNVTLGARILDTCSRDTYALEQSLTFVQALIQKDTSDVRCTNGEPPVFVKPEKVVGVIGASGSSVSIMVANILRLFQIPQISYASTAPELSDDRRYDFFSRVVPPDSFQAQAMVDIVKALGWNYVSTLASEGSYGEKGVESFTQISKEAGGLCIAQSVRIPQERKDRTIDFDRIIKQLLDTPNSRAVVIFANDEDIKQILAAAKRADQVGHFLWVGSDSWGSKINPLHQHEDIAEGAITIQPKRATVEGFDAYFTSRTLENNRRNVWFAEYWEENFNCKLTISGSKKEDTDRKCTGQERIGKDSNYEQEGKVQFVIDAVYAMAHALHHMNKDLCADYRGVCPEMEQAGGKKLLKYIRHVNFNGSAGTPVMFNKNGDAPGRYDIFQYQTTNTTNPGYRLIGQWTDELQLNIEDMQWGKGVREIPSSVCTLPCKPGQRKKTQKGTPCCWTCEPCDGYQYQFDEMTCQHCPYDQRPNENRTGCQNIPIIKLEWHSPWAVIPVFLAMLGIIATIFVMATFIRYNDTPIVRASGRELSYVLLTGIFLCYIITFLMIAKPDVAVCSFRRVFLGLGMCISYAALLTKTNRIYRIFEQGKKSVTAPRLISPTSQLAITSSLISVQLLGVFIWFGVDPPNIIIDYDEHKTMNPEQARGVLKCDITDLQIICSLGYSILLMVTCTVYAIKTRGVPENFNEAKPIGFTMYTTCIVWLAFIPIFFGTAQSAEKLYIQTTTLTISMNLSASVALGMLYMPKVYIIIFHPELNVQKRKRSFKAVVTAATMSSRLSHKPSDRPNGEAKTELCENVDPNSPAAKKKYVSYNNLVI
Source text: The cDNA of the rat mGlu7a receptor splice variant (Genbank: D16817) was inserted into a eukaryotic expression vector pcDNA3.1(+). This plasmid was transfected into CHO cells deficient in dihydrofolate reductase activity (CHO-dhfr^−) harboring a luciferase reporter gene under the control of 5 cAMP-responsive elements (CRE) using Lipofectamine plus according to the instruction of the manufacturer. Clones were isolated through limited dilutions and identified by activities in the reporter gene assay. Cells were stimulated with 1 μM forskolin and 0.5 mM L-AP4 in the assay buffer. After 4 h the supernatant was exchanged with lysis buffer and the luciferase activity measured. Responses ranged from no depression to about 83% depression. A clonal cell line displaying the greatest inhibition of forskolin-mediated luciferase activity was selected and identified as giving consistently good responses for up to at least 20 passages.

rat mGluR7 receptor = biological target: T2, rat mGluR7 receptor (Rattus norvegicus, UniProt P35400); assay: Antibody mediated cellular uptake of siRNA-Cy5 in mGluR7 expressing CHO cells; type: cell-based; conditions: mix of 67 nM primary antibody and 20 nM siRNA-Cy5, 37° C., 40 minutes; FIG. 5 E-H
T2 construct: expressed in transfected cells
T2 sequence (P35400 35-915): as above
Protocol: The experiment was carried out according to the protocol, with the following modifications: The cells were incubated with 67 nm primary antibody conjugated to siRNA-Cy5 (Molar ratio 1 to 0.3) or a mix of 67 nM primary antibody and 20 nM siRNA-Cy5 at 37° C. for 40 minutes. The secondary antibody used for detection of cell surface primary immunostaining was labelled with Alexa488 and the secondary antibody used for detection of whole cell primary immunostaining was labelled with Alexa532. The Trueblue and hoechst staining of the cytoplasm was replaced with a staining step following the formaldehyde fixation, where the samples where incubated with 3 uM Hoechst and 2 μg/ml CellmaskBlue in PBS for 15 minutes at roomtemperature followed by a second fixation with 4% formaldehyde for 15 minutes at roomtemperature.
Each row contains images acquired in parallel of the same field of view in the well. Panel A-D is with primary antibody labelled with siRNA-Cy5, panel E-H with primary antibody mixed with siRNA-Cy5.

Compound | triggering of increases of p44/42 MAPK activities (specificity) [1] | depression of forskolin-mediated luciferase activity (rat mGlu7a receptor) | internalization without a covalent link between IgG and siRNA (rat mGluR7 receptor)
Cl.Cl.c1ccc(C(NCCNC(c2ccccc2)c2ccccc2)c2ccccc2)cc1 [AMN082, Dibenzhydrylethane-1,2-diamine dihydrochloride] | do not trigger increases | – | –
NC(CCP(=O)(O)O)C(=O)O [L-AP4] | do not trigger increases | about 83% | –
siRNA: Cy5 labeled siRNA, sense SEQ ID NO: 1 with C6SSC6 linker, antisense SEQ ID NO: 2; tested mixed with IgG (sense {Cy5}-mCmUmUrAmCrGmCmUrGrArGmUrAmCmUmUmCrGrAdTdT[C6SSC6]dT; antisense rUrCrGrArArGmUrArCrUmCrArGrCrGmUrArArGdT*dT) | – | – | only the IgG is internalized
